What is called IC50 is the concentration that inhibits the measured activity by half.

In one test the target is T1, human Nav1.7 (Homo sapiens, UniProt Q15858).
T1 construct: expressed in transfected cells; host or cells: HEK 293
Kind of test: IonWorks Quattro automated patch-clamp, inactivated state block of Nav1.7. It is filed as cell-based. The note with it: channels stably expressed in HEK 293 cells; double-pulse protocol, inactivated state block; read-out: potency for the Nav 1.7 sodium ion channel (IC50, as measured by IonWorks). An outline of the steps:
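HEK293 stable lines, IonWorks PPC patch clamp (nystatin/amphotericin access); double-pulse protocol giving ~50% inactivation: holding −100 mV (Nav1.7) or −110 mV (Nav1.5), 1000 ms prepulse to −10 or −30 mV, 10 ms repolarization, 10 ms test pulse. Peak current inhibition versus concentration fitted to Hill equation for IC50.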
(In general: The patch-clamp technique gives a direct electrical read-out from membranes.)

The target in another test is T2, human Nav1.5 (Homo sapiens, UniProt Q14524).
T2 construct: expressed in transfected cells; host or cells: HEK 293
In words: IonWorks Quattro automated patch-clamp, Nav1.5 (selectivity against Nav1.7). It is filed as cell-based. The note with it: IonWorks measurement, HEK 293 cells, inactivated state block. As for the experimental part:
Compounds were tested on human Nav1.7 and Nav1.5 channels stably expressed in HEK 293 cells. […] Cells were sealed on a planar substrate using the Population Patch […] (PPC) technology. Electrical access was obtained using both nystatin and amphotericin. A double-pulse protocol was used for the determination of IC50 values for inactivated state block. Nav1.7 and Nav1.5 expressing cells were voltage clamped at −100 mV and −110 mV, respectively. A depolarizing prepulse to −10 mV (Nav1.7) or −30 mV (Nav1.5) for 1000 ms followed by a 10 ms repolarization to −100 mV (Nav1.7) or −110 mV (Nav1.5) was given to generate fractional channel inactivation of 50%, followed by a 10 ms test pulse to −10 mV (Nav1.7) or −30 mV (Nav1.5) to measure peak current in control conditions and after compound addition. The following recording solutions were used (mM). External: 150 NaCl, 2 CaCl2, 5 KCl, 1 Mg Cl2, 10 HEPES, 12 Dextrose; internal: 120 CsF, 30 CsCl, 10 EGTA, 5 HEPES, 5 NaF, 2 MgCl2.
For all electrophysiology experiments, offline analysis was used to determine percent inhibition as a function of drug concentration. IC50 values were determined by fitting to the Hill equation.

Where only a bound is given, the exact number is not on record here.

T1 sequence (Q15858 whole entry): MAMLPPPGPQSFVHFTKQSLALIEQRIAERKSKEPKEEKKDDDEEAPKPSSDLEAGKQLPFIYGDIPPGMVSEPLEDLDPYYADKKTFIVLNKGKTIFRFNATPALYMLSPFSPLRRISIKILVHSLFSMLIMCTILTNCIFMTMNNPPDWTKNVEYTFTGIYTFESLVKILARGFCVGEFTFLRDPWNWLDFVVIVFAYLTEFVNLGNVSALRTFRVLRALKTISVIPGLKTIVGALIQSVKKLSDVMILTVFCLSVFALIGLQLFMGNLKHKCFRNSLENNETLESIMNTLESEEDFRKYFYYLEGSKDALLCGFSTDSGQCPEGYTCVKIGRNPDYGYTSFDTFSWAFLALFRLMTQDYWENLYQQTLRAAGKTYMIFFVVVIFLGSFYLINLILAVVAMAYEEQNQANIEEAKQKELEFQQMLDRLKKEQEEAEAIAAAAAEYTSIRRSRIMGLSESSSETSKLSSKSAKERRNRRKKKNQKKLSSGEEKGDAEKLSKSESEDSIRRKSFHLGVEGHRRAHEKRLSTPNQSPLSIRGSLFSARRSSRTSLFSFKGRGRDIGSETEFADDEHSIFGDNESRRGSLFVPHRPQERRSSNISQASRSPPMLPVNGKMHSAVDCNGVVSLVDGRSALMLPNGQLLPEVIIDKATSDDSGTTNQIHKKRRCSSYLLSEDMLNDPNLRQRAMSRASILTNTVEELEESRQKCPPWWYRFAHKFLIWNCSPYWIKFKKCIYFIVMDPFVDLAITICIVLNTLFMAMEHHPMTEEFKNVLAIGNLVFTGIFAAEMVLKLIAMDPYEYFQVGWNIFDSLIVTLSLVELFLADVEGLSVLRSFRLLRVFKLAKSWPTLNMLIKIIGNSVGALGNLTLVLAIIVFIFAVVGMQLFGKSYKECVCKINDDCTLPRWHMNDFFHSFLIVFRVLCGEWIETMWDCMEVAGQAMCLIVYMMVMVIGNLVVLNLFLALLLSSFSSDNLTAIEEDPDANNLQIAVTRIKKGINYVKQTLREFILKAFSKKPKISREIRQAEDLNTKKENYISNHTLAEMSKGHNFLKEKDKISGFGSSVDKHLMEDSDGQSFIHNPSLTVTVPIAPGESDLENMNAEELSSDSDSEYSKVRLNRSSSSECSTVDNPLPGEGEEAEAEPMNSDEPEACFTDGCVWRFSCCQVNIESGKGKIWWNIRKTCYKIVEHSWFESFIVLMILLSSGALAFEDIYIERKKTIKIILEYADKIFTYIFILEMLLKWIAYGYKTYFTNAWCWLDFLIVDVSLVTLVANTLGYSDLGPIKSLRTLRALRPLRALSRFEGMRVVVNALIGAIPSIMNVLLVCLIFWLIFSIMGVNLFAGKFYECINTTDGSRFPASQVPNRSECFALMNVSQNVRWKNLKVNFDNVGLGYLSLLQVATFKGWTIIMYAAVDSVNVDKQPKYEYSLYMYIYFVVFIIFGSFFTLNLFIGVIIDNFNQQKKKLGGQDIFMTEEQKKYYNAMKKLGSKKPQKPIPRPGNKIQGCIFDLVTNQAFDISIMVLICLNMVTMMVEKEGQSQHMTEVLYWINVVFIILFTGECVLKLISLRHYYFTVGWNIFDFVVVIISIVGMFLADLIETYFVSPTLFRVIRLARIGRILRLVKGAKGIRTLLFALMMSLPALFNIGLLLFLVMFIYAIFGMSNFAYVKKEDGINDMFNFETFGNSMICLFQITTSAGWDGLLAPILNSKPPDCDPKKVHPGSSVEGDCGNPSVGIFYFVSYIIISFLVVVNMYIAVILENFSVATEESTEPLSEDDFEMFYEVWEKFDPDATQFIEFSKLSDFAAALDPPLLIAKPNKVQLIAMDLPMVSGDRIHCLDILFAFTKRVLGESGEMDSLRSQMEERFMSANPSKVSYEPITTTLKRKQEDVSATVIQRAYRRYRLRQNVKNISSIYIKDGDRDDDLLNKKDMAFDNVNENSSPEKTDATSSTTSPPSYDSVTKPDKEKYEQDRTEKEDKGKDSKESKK
T2 sequence (Q14524 whole entry): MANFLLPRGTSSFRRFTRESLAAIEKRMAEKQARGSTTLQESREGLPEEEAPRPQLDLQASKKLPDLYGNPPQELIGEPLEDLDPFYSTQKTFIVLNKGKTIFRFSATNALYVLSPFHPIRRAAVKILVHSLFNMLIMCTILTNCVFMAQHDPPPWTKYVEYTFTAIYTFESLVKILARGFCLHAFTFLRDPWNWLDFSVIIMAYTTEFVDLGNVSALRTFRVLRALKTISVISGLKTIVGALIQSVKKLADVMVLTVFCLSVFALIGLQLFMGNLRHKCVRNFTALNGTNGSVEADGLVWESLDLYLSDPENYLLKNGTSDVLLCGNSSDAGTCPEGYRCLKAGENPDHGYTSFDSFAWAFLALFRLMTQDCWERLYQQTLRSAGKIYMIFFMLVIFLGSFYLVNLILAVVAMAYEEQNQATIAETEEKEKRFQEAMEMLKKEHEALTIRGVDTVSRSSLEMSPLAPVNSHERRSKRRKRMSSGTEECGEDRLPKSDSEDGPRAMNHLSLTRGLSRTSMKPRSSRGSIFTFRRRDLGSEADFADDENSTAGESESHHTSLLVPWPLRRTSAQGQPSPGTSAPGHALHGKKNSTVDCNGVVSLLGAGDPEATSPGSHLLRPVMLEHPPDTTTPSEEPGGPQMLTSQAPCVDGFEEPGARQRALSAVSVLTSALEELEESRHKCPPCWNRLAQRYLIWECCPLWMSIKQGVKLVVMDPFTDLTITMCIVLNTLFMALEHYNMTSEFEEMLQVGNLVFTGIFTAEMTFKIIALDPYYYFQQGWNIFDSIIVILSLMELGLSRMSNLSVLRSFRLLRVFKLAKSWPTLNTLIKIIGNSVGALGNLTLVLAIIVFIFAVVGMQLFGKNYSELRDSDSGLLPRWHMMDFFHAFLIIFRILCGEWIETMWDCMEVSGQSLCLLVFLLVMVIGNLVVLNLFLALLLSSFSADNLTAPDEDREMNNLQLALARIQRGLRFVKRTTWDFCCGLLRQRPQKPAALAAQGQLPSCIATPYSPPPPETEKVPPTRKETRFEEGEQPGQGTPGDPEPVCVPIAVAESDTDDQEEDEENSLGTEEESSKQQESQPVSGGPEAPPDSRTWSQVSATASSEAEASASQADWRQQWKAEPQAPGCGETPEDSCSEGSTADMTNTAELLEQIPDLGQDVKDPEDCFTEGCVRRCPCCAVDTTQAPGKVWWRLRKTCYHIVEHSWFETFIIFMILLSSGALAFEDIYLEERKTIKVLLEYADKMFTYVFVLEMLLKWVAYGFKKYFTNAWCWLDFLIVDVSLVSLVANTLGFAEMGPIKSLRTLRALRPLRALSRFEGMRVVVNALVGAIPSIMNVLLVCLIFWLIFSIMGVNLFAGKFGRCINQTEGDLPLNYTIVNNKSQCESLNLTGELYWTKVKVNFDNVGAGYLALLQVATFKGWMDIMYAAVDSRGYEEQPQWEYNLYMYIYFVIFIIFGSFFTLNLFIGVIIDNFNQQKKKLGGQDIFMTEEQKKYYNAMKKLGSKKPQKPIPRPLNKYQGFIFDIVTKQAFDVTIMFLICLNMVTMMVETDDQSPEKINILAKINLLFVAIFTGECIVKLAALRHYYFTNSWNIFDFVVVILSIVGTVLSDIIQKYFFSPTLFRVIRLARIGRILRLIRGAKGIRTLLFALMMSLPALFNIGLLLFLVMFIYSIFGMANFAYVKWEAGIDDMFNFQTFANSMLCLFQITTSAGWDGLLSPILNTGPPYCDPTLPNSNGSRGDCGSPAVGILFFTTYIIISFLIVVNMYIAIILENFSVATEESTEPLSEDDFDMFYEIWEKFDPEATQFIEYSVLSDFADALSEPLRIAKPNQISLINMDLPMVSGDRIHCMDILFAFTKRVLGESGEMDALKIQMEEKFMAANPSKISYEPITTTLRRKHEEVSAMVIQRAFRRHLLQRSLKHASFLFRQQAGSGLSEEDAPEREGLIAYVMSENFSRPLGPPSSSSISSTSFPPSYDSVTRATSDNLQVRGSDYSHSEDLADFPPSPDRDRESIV

Regarding `N[C@H]1CCC[C@H]1NCCCCNc1cc(F)c(S(=O)(=O)Nc2ncc(F)s2)cc1Cl` [Ex 16-64, 4-[(4-{[(1R,2S)-2-aminocyclopentyl]amino}butyl)amino]-5-chloro-2-fluoro-N-(5-fluoro-1,3-thiazol-2-yl) benzenesulfonamide], the half-maximal inhibitory concentration (IC50) at human Nav1.7 is 23 nM. Also, the “ratio of Nav 1.7 potency:Nav 1.5 potency” value at human Nav1.5 is given as over 1430.
Regarding `C[C@@H](CN)NCCCCNc1cc(F)c(S(=O)(=O)Nc2nccs2)cc1Cl` [Ex 16-68, 4-[(4-{[(1S)-2-amino-1-methylethyl]amino}butyl)amino]-5-chloro-2-fluoro-N-1,3-thiazol-2-ylbenzenesulfonamide], the IC50 at human Nav1.7 was found to be 20 nM. Moreover, the “ratio of Nav 1.7 potency:Nav 1.5 potency” value at human Nav1.5 is recorded as over 1650.
For `N[C@H]1CCC[C@@H]1NCCCCNc1cc(F)c(S(=O)(=O)Nc2ncns2)cc1Cl` [Ex 16-70, 4-[(4-{[(1S,2S)-2-aminocyclopentyl]amino}butyl)amino]-5-chloro-2-fluoro-N-1,2,4-thiadiazol-5-ylbenzenesulfonamide] the same measures were 8.5 nM and over 2710.
The matching figures for `N[C@H]1CCC[C@@H]1NCCCCNc1cc(F)c(S(=O)(=O)Nc2ncc(F)s2)cc1Cl` [Ex 16-71, 4-[(4-{[(1S,2S)-2-aminocyclopentyl]amino}butyl)amino]-5-chloro-2-fluoro-N-(5-fluoro-1,3-thiazol-2-yl)benzenesulfonamide]: 7 nM and over 4710.
The matching figures for `O=S(=O)(Nc1nccs1)c1cc(Cl)c(NCCCCNC[C@@H]2CCN2)cc1F` [Ex 16-74, 4-[(4-{[(2S)-azetidin-2-ylmethyl]amino}butyl)amino]-5-chloro-2-fluoro-N-1,3-thiazol-2-ylbenzenesulfonamide]: 77 nM and over 429.
As for `O=S(=O)(Nc1nccs1)c1cc(Cl)c(NCCCCNC[C@H]2CCN2)cc1F` [Ex 16-75, 4-[(4-{[(2R)-azetidin-2-ylmethyl]amino}butyl)amino]-5-chloro-2-fluoro-N-1,3-thiazol-2-ylbenzenesulfonamide], the IC50 at human Nav1.7 is 41 nM. Further, on human Nav1.5, the “ratio of Nav 1.7 potency:Nav 1.5 potency” value is given as over 805.
For `O=S(=O)(Nc1ncns1)c1cc(Br)c(NCCCCNC[C@@H]2CCN2)cc1F` [Ex 16-76, 4-[(4-{[(2S)-azetidin-2-ylmethyl]amino}butyl)amino]-5-bromo-2-fluoro-N-1,2,4-thiadiazol-5-ylbenzenesulfonamide] the same measures were 17 nM and over 1940.
On to `O=S(=O)(Nc1ncns1)c1cc(Br)c(NCCCCNC[C@H]2CCN2)cc1F` [Ex 16-77, 4-[(4-{[(2R)-azetidin-2-ylmethyl]amino}butyl)amino]-5-bromo-2-fluoro-N-1,2,4-thiadiazol-5-ylbenzenesulfonamide], for which, at human Nav1.7, the IC50 was found to be 24 nM. Further, the “ratio of Nav 1.7 potency:Nav 1.5 potency” value on human Nav1.5 is over 1380.
For `C[C@H](CCN)NCCCCNc1cc(F)c(S(=O)(=O)Nc2ncns2)cc1Br` [Ex 16-79, 4-[4-[[(1R)-3-amino-1-methyl-propyl]amino]butylamino]-5-bromo-2-fluoro-N-(1,2,4-thiadiazol-5-yl)benzenesulfonamide] the same measures were 5.4 nM and 4260.
The matching figures for `C[C@H](N)CNCCCCNc1cc(F)c(S(=O)(=O)Nc2ncns2)cc1Br` [Ex 16-80, 4-[4-[[(2S)-2-aminopropyl]amino]butylamino]-5-bromo-2-fluoro-N-(1,2,4-thiadiazol-5-yl)benzenesulfonamide]: 3.1 nM and over 10600.
The matching figures for `NC1CCC1NCCCCNc1cc(F)c(S(=O)(=O)Nc2ncns2)cc1Cl` (stereo not drawn) [Ex 16-81, 4-[4-[(2-aminocyclobutyl)amino]butylamino]-5-chloro-2-fluoro-N-(1,2,4-thiadiazol-5-yl) benzenesulfonamide]: 4.9 nM and over 6700.
Take `CC(C)C[C@@H](CNCCCCNc1cc(F)c(S(=O)(=O)Nc2ncc(F)s2)cc1Cl)[C@@H](C)N` [Ex 16-84, 4-((4-(((S)-2-((R)-1-aminoethyl)-4-methylpentyl)-amino)butyl)amino)-5-chloro-2-fluoro-N-(5-fluorothiazol-2-yl)benzenesulfonamide]: on human Nav1.7, the IC50 came out at 6.1 nM. On human Nav1.5, the “ratio of Nav 1.7 potency:Nav 1.5 potency” value is over 5400.
Turning to `CC(C)C[C@@H](CNCCCCNc1cc(F)c(S(=O)(=O)Nc2ncns2)cc1Cl)[C@@H](C)N` [Ex 16-85, 4-((4-(((S)-2-((R)-1-aminoethyl)-4-methylpentyl)-amino)butyl)amino)-5-chloro-2-fluoro-N-(1,2,4-thiadiazol-5-yl) benzenesulfonamide], the half-maximal inhibitory concentration (IC50) on human Nav1.7 is 4.5 nM. Besides, the “ratio of Nav 1.7 potency:Nav 1.5 potency” value on human Nav1.5 is given as over 7330.
The matching figures for `N[C@@H]1CCC[C@H]1NCCCCNc1cc(F)c(S(=O)(=O)Nc2ncns2)cc1F` [Ex 16-86, 4-[4-[[(1R,2R)-2-aminocyclopentyl]amino]butylamino]-2,5-difluoro-N-(1,2,4-thiadiazol-5-yl)benzenesulfonamide]: 39 nM and over 850.
For the molecule `NCCNCCCCNc1cc(F)c(S(=O)(=O)Nc2ncns2)cc1Br` [Ex 16-88, 4-[4-(2-aminoethylamino)butylamino]-5-bromo-2-fluoro-N-(1,2,4-thiadiazol-5-yl)benzenesulfonamide], the IC50 at human Nav1.7 is 9.6 nM. For the same molecule, the “ratio of Nav 1.7 potency:Nav 1.5 potency” value on human Nav1.5 is given as over 3400.
On to `CCNCCNCCCCNc1cc(F)c(S(=O)(=O)Nc2ncns2)cc1Br` [Ex 16-92, 5-bromo-4-[4-[2-(ethylamino)ethylamino]butylamino]-2-fluoro-N-(1,2,4-thiadiazol-5-yl)benzenesulfonamide], for which the IC50 at human Nav1.7 was 3.4 nM. Also, the “ratio of Nav 1.7 potency:Nav 1.5 potency” value at human Nav1.5 is over 9700.
The matching figures for `N[C@@H]1CCC[C@@H]1NCCCCNc1cc(F)c(S(=O)(=O)Nc2ncns2)cc1Br` [Ex 16-93, 4-[4-[[(1S,2R)-2-aminocyclopentyl]amino]butylamino]-5-bromo-2-fluoro-N-(1,2,4-thiadiazol-5-yl)benzenesulfonamide]: 41 nM and over 800.
For `N[C@@H]1CCC[C@H]1NCCCCNc1cc(F)c(S(=O)(=O)Nc2ncns2)cc1Br` [Ex 16-94, 4-[4-[[(1R,2R)-2-aminocyclopentyl]amino]butylamino]-5-bromo-2-fluoro-N-(1,2,4-thiadiazol-5-yl)benzenesulfonamide] the same measures were 7.3 nM and 3150.
The matching figures for `N[C@H]1CC[C@H](NCCCCNc2cc(F)c(S(=O)(=O)Nc3ncns3)cc2Br)C1` [Ex 16-95, 4-[4-[[(1S,3S)-3-aminocyclopentyl]amino]butylamino]-5-bromo-2-fluoro-N-(1,2,4-thiadiazol-5-yl)benzenesulfonamide]: 35 nM and over 940.
As for `NCC1(NCCCCNc2cc(F)c(S(=O)(=O)Nc3ncns3)cc2Br)CC1` [Ex 16-98, 4-[4-[[1-(aminomethyl)cyclopropyl]amino]butylamino]-5-bromo-2-fluoro-N-(1,2,4-thiadiazol-5-yl) benzenesulfonamide], the IC50 on human Nav1.7 stood at 8.6 nM. Moreover, the “ratio of Nav 1.7 potency:Nav 1.5 potency” value at human Nav1.5 was over 3840.
The matching figures for `C[C@@H](N)CNCCCCNc1cc(F)c(S(=O)(=O)Nc2ncns2)cc1Br` [Ex 16-99, 4-[4-[[(2R)-2-aminopropyl]amino]butylamino]-5-bromo-2-fluoro-N-(1,2,4-thiadiazol-5-yl)benzenesulfonamide]: 5.9 nM and 3900.

Source of the values: patent US10519147B2 (Merck Sharp & Dohme Corp., priority 2015, dated 2019).
